Results as given in patent US6903081B2, “Phosphoramidates and methods therefor” (Purdue Research Foundation, priority 2000, dated 2005).
Entries after “also recorded” stand apart in the source; their conditions may differ. Where two headings read alike, the source gives them in different places. Blank lines part the entries; values can stand above or below the molecule they belong to.

Key:
L1210 cells = test: Tritium assay in L1210 cells; type: cell-based; conditions: Mus musculus
Experimental: (§1) Stock solutions of drugs were prepared in absolute ethanol. L1210 cells were suspended in fisher's medium, LM and LM (TK-) cells were suspended in minimum essential medium to give a final density of 11.24×10^6 cells/mL. Aliquots ([…]) of the cell suspension were placed in ependorf tubes, followed by addition of 5 mL of drug solution and incubated at 37° C. for 2 hours. Tritium release reaction was started by the addition of […] of serum free media containing 1 mCi [5-^3H]dCyt in a 0.5 mM dCyt solution. Allowed reaction to incubate for 60 min in a shaking water bath at 37° C. Reaction was terminated by transferring 100 mL of the reaction mixture to ependorf tubes containing 100 mL of a 20% mixture of activated charcoal suspension in 4% aqueous perchloric acid. Tubes were vigorously vortexed, then centrifuged in a microfuge. Radioactivity of […] of the supernatant was measured using a scintillation spectrometer. The data were analyzed by sigmoidal curve fit of CMP vs. Log (drug concentration) and the results expressed as the IC50 (the drug concentration that inhibits cell growth to 50% of control value).

LM(TK-) cells = test: Tritium assay in LM(TK-) cells; type: cell-based; conditions: L-M(TK-), read-out: IC50 tritium assay
Experimental: as §1

L1210 leukemia cells = test: Growth inhibition in L1210 mouse leukemia cells; type: cell-based
Experimental: In an alternate embodiment of the invention, the analogous thymidine compounds were prepared (i.e., 3 where F═CH3). The thymidine phosphoramidate was activated by reduction of the nitrofuryl group with sodium dithionite in aqueous buffer/acetonitrile at 37° C., and the reaction was monitored by ^31P nmr. Within ten minutes the resonance for the phosphoramidate anion had disappeared and a new peak corresponding to thymidine-5′-phosphate appeared as the exclusive phosphorus-containing product by ^31P nmr. Nucleoside phosphoramidate 3 was then evaluated for its ability to inhibit proliferation of L1210 leukemia cells in vitro. Cells were exposed to drug for 2, 8, 24, and 48 hours; the results are summarized below:
Stock solutions of drugs were prepared in absolute ethanol, and serial dilutions of drug were prepared in ethanol. L1210 cells were suspended in Fisher's medium supplemented with 10% horse serum, 1% glutamine, and 1% antibiotic-antimycotic solution to give 10 mL volumes of cell suspension at a final density of 3-6×10^4 cells/mL. Appropriate volumes of the drug solution were transferred to the cell suspensions, and incubation was continued for 2, 8, 24, or 48 hours. The cells were spun down, resuspended in fresh drug-free medium and returned to the incubator. Final cell counts were determined 48 hours after the start of drug treatment. The data were analyzed by sigmoidal curve fit of cell count vs. Log (drug concentration) and the results expressed as the IC50 (the drug concentration that inhibits cell growth to 50% of control value).

LM cells = test: Tritium assay in LM cells; type: cell-based; conditions: read-out: IC50 tritium assay
Experimental: as §1

[1] = system: luciferase expression in J77 cells transfected with NF-AT-Luciferase plasmid; test: Luciferase inhibition on transfected J77 cells; type: cell-based; conditions: read-out: IC50 luciferase inhibition
Experimental: J77 cells (2×10^7 cells in […] of FBS-free RPMI media) were transfected with […] of NF-AT-Luciferase plasmid. Cells were transferred to a flask with 10 mL of complete RPMI media and incubated for 24 hours. After this time cells were spun down, resuspended in 12 mL of complete RPMI media and divided into a 6-well well plate (2 mL/well). Drug stock solutions in DMSO were made and each well was treated with a different concentration and incubated for 2 hours. Each well was then treated with 10 mL of a mixture of 1.25 mg of PMA and 9 mg of Ionomycin in 115 mL of FBS-free RPMI, followed by the addition of 2 mg of Anti-CD3. Cells were incubated for 6 hours, spun down, washed with PBS, lysed for 15 min and centrifuged. Supernantant was collected and stored at −78° C. overnight. Luciferase activity was measured using a luminometer with a mixture of 50 mL of luciferase substrate and 10 ml of supernatant.

[2] = Chemical activation by sodium dithionite reduction monitored by 31P nmr; type: physicochemical; conditions: sodium dithionite in aqueous buffer/acetonitrile at 37° C.
pp60src SH2 domain = pp60src SH2 domain (Homo sapiens, UniProt P12931); test: Binding to pp60src SH2 domain; conditions: read-out: binding affinity
Excerpt: An alternate embodiment of the invention is illustrated in scheme 3: [drawing 3] This reaction is directed toward the synthesis of phosphoramidate 11A and involved the preparation of the nitrofuryl phosphoramidate of p-hydroxybenzoic acid 9A and coupling of this product with the benzyl amine 10A, prepared from 5-acetylsalicylamide. Briefly, to synthesize the benzoic acid derivative 9A, p-Hydroxybenzoic acid was converted to its allyl ester 6A by reaction of the potassium salt with allylbromide. The allyl ester was reacted with POCl3 and the intermediate phosphoryl dichloride was treated with methyl chlorobutylamine in the presence of triethylamine to give phosphoramidic chloride 7A. Reaction of 7A with the lithium salt of 5-nitro-2-hydroxymethylfuran afforded the phosphoramidate 8A. Deprotection of the allyl ester was accomplished by reaction with Pd(Ph3P)4/sodium p-toluenesulfinate to give the benzoic acid phosphoramidate 9A. Reaction of 9A with isobutyl chloroformate in the presence of triethylamine, followed by addition of benzylamine 10A afforded the desired peptidomimetic prodrug 11A. In order to confirm that the activation chemistry of 11A to 12A would proceed as expected, 11A was reduced with sodium dithionite in ethanol/aqueous buffer and the reaction monitored by ^31P nmr. […]

[3] = Mus musculus, L1210, 2 h, read-out: L1210 IC50, drug exposure 2 hr, comparison of compound 5 with compound 3
[4] = Mus musculus, L1210, 8 h, read-out: L1210 IC50, drug exposure 8 hr, comparison of compound 5 with compound 3
[5] = Mus musculus, L1210, 24 h, read-out: L1210 IC50, drug exposure 24 hr, comparison of compound 5 with compound 3
[6] = Mus musculus, L1210, 48 h, drug exposure 48 h, final cell counts 48 hours after start of drug treatment
[7] = Mus musculus, L1210, 48 h, read-out: L1210 IC50, drug exposure 48 hr, comparison of compound 5 with compound 3
[8] = Mus musculus, L1210, drug exposure 2 h, final cell counts 48 hours after start of drug treatment
[9] = Mus musculus, L1210, drug exposure 8 h, final cell counts 48 hours after start of drug treatment
[10] = Mus musculus, L1210, drug exposure 24 h, final cell counts 48 hours after start of drug treatment

pp60src SH2 domain, sequence (P12931 151-248 limits assumed): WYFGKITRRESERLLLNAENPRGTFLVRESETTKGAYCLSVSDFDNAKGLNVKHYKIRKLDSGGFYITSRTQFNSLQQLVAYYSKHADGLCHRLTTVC

SMILES: CN(CCCCCl)P(=O)(OCc1ccc([N+](=O)[O-])o1)OC[C@H]1O[C@@H](n2cc(F)c(=O)[nH]c2=O)CC1O (some centres unmarked) [Compound 3, 5-Fluoro-2′-deoxyuridyl 5-nitrofurfuryl N-methyl-N-(4-chlorobutyl)phosphoramidate]
IC50 (L1210 cells; L1210, read-out: IC50 tritium assay): 46 nM
IC50 (LM(TK-) cells): 1280 nM
inhibition of L1210 cell proliferation, in words (L1210 leukemia cells): significantly more potent than the analogous bromoethyl compound; also recorded: highly potent inhibitors
IC50 (L1210 leukemia cells; Mus musculus, L1210, 2 h, read-out: L1210 IC50, drug exposure 2 hr): 112 nM
IC50 (L1210 leukemia cells; [3]): 116 nM
IC50 (L1210 leukemia cells; Mus musculus, L1210, 8 h, read-out: L1210 IC50, drug exposure 8 hr): 40 nM
IC50 (L1210 leukemia cells; [4]): 47 nM
IC50 (L1210 leukemia cells; Mus musculus, L1210, 24 h, read-out: L1210 IC50, drug exposure 24 hr): 6 nM
IC50 (L1210 leukemia cells; [5]): 7.2 nM
IC50 (L1210 leukemia cells; [6]): 2.3 nM
IC50 (L1210 leukemia cells; Mus musculus, L1210, 48 h, read-out: L1210 IC50, drug exposure 48 hr): 2 nM
IC50 (L1210 leukemia cells; [7]): 2.3 nM
IC50 (L1210 leukemia cells; [8]): 116 nM
IC50 (L1210 leukemia cells; [9]): 47 nM
IC50 (L1210 leukemia cells; [10]): 7.2 nM
IC50 (LM cells): 711 nM

SMILES: CC(NC(=O)c1ccc(OP(=O)(OCc2ccc([N+](=O)[O-])o2)N(C)CCCCCl)cc1)c1ccc(OCC2CCCCC2)c(C(N)=O)c1 (centres unmarked) [Compound 35]
IC50 [1]: 34100 nM

SMILES: CC(NC(=O)Cc1ccc(OP(=O)(OCc2ccc([N+](=O)[O-])o2)N(C)CCCCCl)cc1)c1ccc(OCC2CCCCC2)c(C(N)=O)c1 (centres unmarked) [Compound 40]
IC50 [1]: 3400 nM

SMILES: CN(CCCCCl)P(=O)(OCC1=CC(=O)c2ccccc2C1=O)OC[C@H]1O[C@@H](n2cc(F)c(=O)[nH]c2=O)CC1O (some centres unmarked) [Compound 5, 5-Fluoro-2′-deoxyuridyl 2-(1,4-napthoquinonyl)methyl N-methyl-N-(4-chlorobutyl)phosphoramidate]
inhibition of L1210 cell proliferation, in words (L1210 leukemia cells): highly potent inhibitors
potency relative to compound 3 (L1210 leukemia cells; L1210 cell proliferation): approximately 3 fold
IC50 (L1210 leukemia cells; [3]): 44 nM
IC50 (L1210 leukemia cells; [4]): 16 nM
IC50 (L1210 leukemia cells; [5]): 3.1 nM
IC50 (L1210 leukemia cells; [6]): 0.63 nM
IC50 (L1210 leukemia cells; [7]): 0.63 nM
IC50 (L1210 leukemia cells; [8]): 44 nM
IC50 (L1210 leukemia cells; [9]): 16 nM
IC50 (L1210 leukemia cells; [10]): 3.1 nM

time until the phosphoramidate anion resonance had disappeared (thymidine-5′-phosphate exclusive product) [2]: ten
SMILES: Cc1cn([C@H]2C[C@H](O)[C@@H](COP(N)(=O)O)O2)c(=O)[nH]c1=O [thymidine phosphoramidate]

IC50 (L1210 cells; L1210, drug 2 hours at 37° C., then [5-3H]dCyt 60 min, read-out: IC50 tritium assay): 8 nM
IC50 (LM(TK-) cells; LM(TK-), drug 2 hours at 37° C., then [5-3H]dCyt 60 min): 3670 nM
IC50 (L1210 leukemia cells; Mus musculus, L1210, 48 h, drug exposure 48 h, final cell counts 48 hours after start of drug treatment, read-out: IC50): 0.64 nM
IC50 (L1210 leukemia cells; Mus musculus, L1210, drug exposure 2 h, final cell counts 48 hours after start of drug treatment, read-out: IC50): 45 nM
IC50 (L1210 leukemia cells; Mus musculus, L1210, drug exposure 8 h, final cell counts 48 hours after start of drug treatment, read-out: IC50): 23 nM
IC50 (L1210 leukemia cells; Mus musculus, L1210, drug exposure 24 h, final cell counts 48 hours after start of drug treatment, read-out: IC50): 4.1 nM
IC50 (LM cells; LM, drug 2 hours at 37° C., then [5-3H]dCyt 60 min): 59 nM
SMILES: O=c1[nH]c(=O)n([C@H]2C[C@H](O)[C@@H](CO)O2)cc1F [FUdR, 5-Fluoro-2′-deoxyuridine, reference compound]

SMILES: COC1=CC(=O)c2c(cc(COP(=O)(OCC3OC(n4cc(F)c(=O)[nH]c4=O)CC3O)N(C)CCCCCl)n2C)C1=O (centres unmarked) [Compound 6, 5-Fluoro-2′-deoxyuridyl 2-(5-methoxy-N-methylindoloquinone)methyl N-methyl-N-(4-chlorobutyl)phosphoramidate]
IC50 (L1210 leukemia cells; [6]): 1.6 nM
IC50 (L1210 leukemia cells; [8]): 34 nM
IC50 (L1210 leukemia cells; [9]): 48 nM
IC50 (L1210 leukemia cells; [10]): 4.8 nM

SMILES: CC(NC(=O)c1ccc(NP(=O)(OCc2ccc([N+](=O)[O-])o2)N(C)CCCCCl)cc1)c1ccc(OCC2CCCCC2)c(C(N)=O)c1 (centres unmarked) [Compound 42]
IC50 ([1]; transfected J77 cells, drug 2 hours, then PMA/Ionomycin/Anti-CD3 for 6 hours): 15000 nM

SMILES: CC(NC(=O)c1ccc(OP(=O)(OCC2=CC(=O)c3ccccc3C2=O)N(C)CCCCCl)cc1)c1ccc(OCC2CCCCC2)c(C(N)=O)c1 (centres unmarked) [Compound 37]
IC50 [1]: 4200 nM

SMILES: CC(=O)NC(Cc1ccc(OP(=O)(OCc2ccc([N+](=O)[O-])o2)N(C)CCCCCl)cc1)C(=O)NC(C)c1ccc(OCC2CCCCC2)c(C(N)=O)c1 (centres unmarked) [Compound 38]
IC50 [1]: 5600 nM

SMILES: CC(NC(=O)c1ccc(OP(=O)(O)O)cc1)c1ccc(OCC2CCCCC2)c(C(N)=O)c1 (centres unmarked) [Compound 12A]
Kd (pp60src SH2 domain): 5600 nM

SMILES: O=c1[nH]cc(F)c(=O)[nH]1 [Compound 5-FU, reference compound]
IC50 (L1210 leukemia cells; drug exposure 2 h, final cell counts 48 hours after start of drug treatment, read-out: IC50): 2500 nM
IC50 (L1210 leukemia cells; drug exposure 2 hr, comparison of compound 5 with compound 3, read-out: L1210 IC50): 2500 nM
IC50 (L1210 leukemia cells; drug exposure 2 hr, read-out: L1210 IC50): 2740 nM
IC50 (L1210 leukemia cells; drug exposure 8 h, final cell counts 48 hours after start of drug treatment, read-out: IC50): 1010 nM
IC50 (L1210 leukemia cells; drug exposure 8 hr, comparison of compound 5 with compound 3, read-out: L1210 IC50): 1010 nM
IC50 (L1210 leukemia cells; drug exposure 8 hr, read-out: L1210 IC50): 1390 nM
IC50 (L1210 leukemia cells; drug exposure 24 h, final cell counts 48 hours after start of drug treatment, read-out: IC50): 360 nM
IC50 (L1210 leukemia cells; drug exposure 24 hr, comparison of compound 5 with compound 3, read-out: L1210 IC50): 360 nM
IC50 (L1210 leukemia cells; drug exposure 24 hr, read-out: L1210 IC50): 495 nM
IC50 (L1210 leukemia cells; drug exposure 48 h, final cell counts 48 hours after start of drug treatment, read-out: IC50): 200 nM
IC50 (L1210 leukemia cells; drug exposure 48 hr, comparison of compound 5 with compound 3, read-out: L1210 IC50): 200 nM
IC50 (L1210 leukemia cells; drug exposure 48 hr, read-out: L1210 IC50): 265 nM
